Experimental data published in ChEMBL document CHEMBL1150684, “New cytotoxic lupane triterpenoids from the twigs of Coussarea paniculata” (J Nat Prod, 2003).
Values after ≈ are worked out from the molar mass of the structure shown.

These compounds were tested on A2780 (assay: Cytotoxicity against human A2780 cells).
Type: functional, cell-based

Row | Structure (SMILES) | IC50 [µg/mL]
1 | C[C@H]1[C@H](C)CC[C@]2(C(=O)O)CC[C@]3(C)C(=CC[C@@H]4[C@@]5(C)CC[C@H](O)C(C)(C)[C@@H]5CC[C@]43C)[C@H]12 [URSOLIC ACID] | ≥ 20
2 | C=C(C)[C@@H]1CC[C@]2(C)CC[C@]3(C)[C@H](CC[C@@H]4[C@@]5(C)CC[C@H](O)C(C)(C)[C@@H]5CC[C@]43C)[C@@H]12 [LUPEOL] | ≥ 20
3 | C=C(C)[C@@H]1CC[C@]2(C=O)CC[C@]3(C)[C@H](CC[C@@H]4[C@@]5(C)CC[C@@H](O)C(C)(C)[C@@H]5CC[C@]43C)[C@@H]12 | ≥ 20
4 | C=C(C)[C@@H]1CC[C@]2(C(=O)O)CC[C@]3(C)[C@H](CC[C@@H]4[C@@]5(C)CC[C@H](O)C(C)(C)[C@@H]5CC[C@]43C)[C@@H]12 [BETULINIC ACID] | ≥ 20
5 | C=C(C)[C@@H]1CC[C@]2(COC(C)=O)CC[C@]3(C)[C@H](CC[C@@H]4[C@@]5(C)CC[C@H](OC(C)=O)C(C)(C)[C@@H]5CC[C@]43C)[C@@H]12 [BETULIN DIACETATE] | ≥ 20
6 | C=C(C)[C@@H]1CC[C@]2(C)CC[C@]3(C)[C@H](CC[C@@H]4[C@@]5(COC(C)=O)CC[C@H](OC(C)=O)C(C)(C)[C@@H]5CC[C@]43C)[C@@H]12 | 9.6 (≈ 18.2 µM)
7 | C=C(C)[C@@H]1CC[C@]2(C(=O)O)CC[C@]3(C)[C@H](CC[C@@H]4[C@@]5(C)CC[C@@H](O)C(C)(C)[C@@H]5CC[C@]43C)[C@@H]12 [EPIBETULINIC ACID] | ≥ 20
8 | C=C(C)[C@@H]1CC[C@]2(C)CC[C@]3(C)[C@H](C[C@@H](O)[C@@H]4[C@]56CC[C@H](OC5=O)C(C)(C)[C@@H]6CC[C@]43C)[C@@H]12 | 18 (≈ 39.6 µM)
9 | CC1(C)CC[C@]2(C(=O)O)CC[C@]3(C)C(=CC[C@@H]4[C@@]5(C)CC[C@H](O)C(C)(C)[C@@H]5CC[C@]43C)[C@@H]2C1 [OLEANOLIC_ACID] | ≥ 20
10 | C=C(C)[C@@H]1CC[C@]2(C)CC[C@]3(C)[C@H](CC[C@@H]4[C@@]5(C)CC[C@H](OC(C)=O)C(C)(C)[C@@H]5CC[C@]43C)[C@@H]12 [LUPENYL ACETATE] | 16
11 | C=C(C)[C@@H]1CC[C@]2(C(=O)O)CC[C@]3(C)[C@H](CC[C@@H]4[C@@]5(C)CCCC(C)(C)[C@@H]5CC[C@]43C)[C@@H]12 | 17.4 (≈ 39.5 µM)
